One experiment relates to HPB-ALL. The experiment is described as follows: selective drug sensitivity score (sDSS, relative to normal bone marrow) (sDSS (score)); higher = more potent and effective on the cell line relative to normal bone marrow cells. The conditions noted are these: 72 h.
On to `Cn1cncc1[C@@](N)(c1ccc(Cl)cc1)c1ccc2c(c1)c(-c1cccc(Cl)c1)cc(=O)n2C` [Tipifarnib] (top concentration 10000 nM), for which the “selective drug sensitivity score” value was found to be 6.1.
On the same count and under the same terms, the same measure for `COc1ccccc1S(=O)(=O)Nc1ccc2c(c1)CN(C)C(=O)N2` [PFI-1] (top concentration 30000 nM): 1; for `Cc1cn(-c2cc(NC(=O)c3ccc(C)c(Nc4nccc(-c5cnccn5)n4)c3)cc(C(F)(F)F)c2)cn1` [Radotinib] (top concentration 10000 nM): 6.4.
The same measure, in the same setting: then `CC[C@H](Nc1ncnc2[nH]cnc12)c1nc2cccc(F)c2c(=O)n1-c1ccccc1` [Idelalisib] (top concentration 10000 nM), with -2.16.
On the same count and under the same terms, then `Cc1noc2c1-c1ccccc1C(c1ccc(Cl)cc1)=N[C@H]2CC(N)=O` [CPI-0610] (top concentration 10000 nM), with 1.
As to `C=C(c1ccc(C(=O)O)cc1)c1cc2c(cc1C)C(C)(C)CCC2(C)C` [Bexarotene] (top concentration 10000 nM), the “selective drug sensitivity score” value was -5.1.
In the case of `CC1(COc2ccc3c(c2)ncn3-c2ccc3cccc(N4CCC(N)CC4)c3n2)COC1` [Crenolanib] (top concentration 10000 nM), the “selective drug sensitivity score” value is -3.12.
For the compound `O=C(Nc1cc(Oc2cc(F)c(NC(=O)C3(C(=O)Nc4ccc(F)cc4)CC3)cc2F)ccn1)C1CC1` [Altiratinib] (top concentration 10000 nM), the “selective drug sensitivity score” value turned out to be 3.54.
Still for that read-out and setting: the same measure for `O=C(Nc1ccncc1)C(=O)c1cn(Cc2ccc(Cl)cc2)c2ccccc12` [Indibulin] (top concentration 10000 nM): 14.2; for `Cc1ncc(-c2ccnc(Nc3ccc(S(C)(=O)=O)cc3)n2)n1C(C)C` [AZD-5438] (top concentration 10000 nM): -5.06; for `NC[C@@](O)(c1ccc(Cl)cc1)c1ccc(-c2cn[nH]c2)cc1` (top concentration 10000 nM): -0.72.
Still for that read-out and setting: then `Cn1c(Nc2ccc(C(F)(F)F)cc2)nc2cc(Oc3ccnc(-c4ncc(C(F)(F)F)[nH]4)c3)ccc21` [NVP-RAF265] (top concentration 1000 nM), with 0.08; and `CNCc1ccc(-c2[nH]c3cc(F)cc4c3c2CCNC4=O)cc1` [Rucaparib] (top concentration 10000 nM), with -0.58; and `O=C(CCCCCCC(=O)Nc1ccc([C@H]2O[C@@H](CSc3nc(-c4ccccc4)c(-c4ccccc4)o3)C[C@@H](c3ccc(CO)cc3)O2)cc1)NO` [Tubacin] (top concentration 10000 nM), with 4.44.
Take `N#CCNC(=O)c1ccc(-c2ccnc(Nc3ccc(N4CCOCC4)cc3)n2)cc1` [Momelotinib] (top concentration 10000 nM): the “selective drug sensitivity score” value is -8.52.
The same measure, in the same setting: the same measure for `Nc1cccc2c1CN(C1CCC(=O)NC1=O)C2=O` (stereo not given) [Lenalidomide] (top concentration 100000 nM): -2.28.
On the same count and under the same terms, the same measure for `CCN1CCN(Cc2ccc(Nc3ncc(F)c(-c4cc(F)c5nc(C)n(C(C)C)c5c4)n3)nc2)CC1` [Abemaciclib] (top concentration 2500 nM): -2.46; for `Cc1cc(Nc2ncc(Cl)c(Nc3ccccc3S(=O)(=O)C(C)C)n2)c(OC(C)C)cc1C1CCNCC1` [Ceritinib] (top concentration 2500 nM): 1.86.

A further experiment relates to RPMI-8402. The experiment is described as above. The conditions noted are these: 72 h.
Regarding `Cn1cncc1[C@@](N)(c1ccc(Cl)cc1)c1ccc2c(c1)c(-c1cccc(Cl)c1)cc(=O)n2C` [Tipifarnib] (top concentration 10000 nM), the “selective drug sensitivity score” value stood at 20.9.
Still for that read-out and setting: the same measure for `COc1ccccc1S(=O)(=O)Nc1ccc2c(c1)CN(C)C(=O)N2` [PFI-1] (top concentration 30000 nM): 2.5; for `Cc1cn(-c2cc(NC(=O)c3ccc(C)c(Nc4nccc(-c5cnccn5)n4)c3)cc(C(F)(F)F)c2)cn1` [Radotinib] (top concentration 10000 nM): 3.3.
On the same count and under the same terms, the same measure for `CC[C@H](Nc1ncnc2[nH]cnc12)c1nc2cccc(F)c2c(=O)n1-c1ccccc1` [Idelalisib] (top concentration 10000 nM): -0.76; for `Cc1noc2c1-c1ccccc1C(c1ccc(Cl)cc1)=N[C@H]2CC(N)=O` [CPI-0610] (top concentration 10000 nM): 4.4; for `C=C(c1ccc(C(=O)O)cc1)c1cc2c(cc1C)C(C)(C)CCC2(C)C` [Bexarotene] (top concentration 10000 nM): -4.
Still for that read-out and setting: then `CC1(COc2ccc3c(c2)ncn3-c2ccc3cccc(N4CCC(N)CC4)c3n2)COC1` [Crenolanib] (top concentration 10000 nM), with -2.72; and `O=C(Nc1cc(Oc2cc(F)c(NC(=O)C3(C(=O)Nc4ccc(F)cc4)CC3)cc2F)ccn1)C1CC1` [Altiratinib] (top concentration 10000 nM), with 1.64.
With `O=C(Nc1ccncc1)C(=O)c1cn(Cc2ccc(Cl)cc2)c2ccccc12` [Indibulin] (top concentration 10000 nM), the “selective drug sensitivity score” value is 5.84.
Still for that read-out and setting: the same measure for `Cc1ncc(-c2ccnc(Nc3ccc(S(C)(=O)=O)cc3)n2)n1C(C)C` [AZD-5438] (top concentration 10000 nM): -0.76; for `NC[C@@](O)(c1ccc(Cl)cc1)c1ccc(-c2cn[nH]c2)cc1` (top concentration 10000 nM): 3.28.
`Cn1c(Nc2ccc(C(F)(F)F)cc2)nc2cc(Oc3ccnc(-c4ncc(C(F)(F)F)[nH]4)c3)ccc21` [NVP-RAF265] (top concentration 1000 nM): the “selective drug sensitivity score” value came to 0.98.
As for `CNCc1ccc(-c2[nH]c3cc(F)cc4c3c2CCNC4=O)cc1` [Rucaparib] (top concentration 10000 nM), the “selective drug sensitivity score” value was determined as 0.32.
For the compound `O=C(CCCCCCC(=O)Nc1ccc([C@H]2O[C@@H](CSc3nc(-c4ccccc4)c(-c4ccccc4)o3)C[C@@H](c3ccc(CO)cc3)O2)cc1)NO` [Tubacin] (top concentration 10000 nM), the “selective drug sensitivity score” value came to 7.64.
Still for that read-out and setting: then `N#CCNC(=O)c1ccc(-c2ccnc(Nc3ccc(N4CCOCC4)cc3)n2)cc1` [Momelotinib] (top concentration 10000 nM), with -0.82; and `Nc1cccc2c1CN(C1CCC(=O)NC1=O)C2=O` (stereo not given) [Lenalidomide] (top concentration 100000 nM), with -2.08.
On the same count and under the same terms, then `CCN1CCN(Cc2ccc(Nc3ncc(F)c(-c4cc(F)c5nc(C)n(C(C)C)c5c4)n3)nc2)CC1` [Abemaciclib] (top concentration 2500 nM), with 0.74; and `Cc1cc(Nc2ncc(Cl)c(Nc3ccccc3S(=O)(=O)C(C)C)n2)c(OC(C)C)cc1C1CCNCC1` [Ceritinib] (top concentration 2500 nM), with -1.84.

A further experiment deals with COG-LL-319h. The experiment is described as above. The settings on record: 72 h.
Take `Cn1cncc1[C@@](N)(c1ccc(Cl)cc1)c1ccc2c(c1)c(-c1cccc(Cl)c1)cc(=O)n2C` [Tipifarnib] (top concentration 10000 nM): the “selective drug sensitivity score” value was 8.2.
The same measure, in the same setting: then `COc1ccccc1S(=O)(=O)Nc1ccc2c(c1)CN(C)C(=O)N2` [PFI-1] (top concentration 30000 nM), with 16.2.
Same read-out and setting: the same measure for `Cc1cn(-c2cc(NC(=O)c3ccc(C)c(Nc4nccc(-c5cnccn5)n4)c3)cc(C(F)(F)F)c2)cn1` [Radotinib] (top concentration 10000 nM): 13.2; for `CC[C@H](Nc1ncnc2[nH]cnc12)c1nc2cccc(F)c2c(=O)n1-c1ccccc1` [Idelalisib] (top concentration 10000 nM): 1.74; for `Cc1noc2c1-c1ccccc1C(c1ccc(Cl)cc1)=N[C@H]2CC(N)=O` [CPI-0610] (top concentration 10000 nM): 10.3.
Still for that read-out and setting: the same measure for `C=C(c1ccc(C(=O)O)cc1)c1cc2c(cc1C)C(C)(C)CCC2(C)C` [Bexarotene] (top concentration 10000 nM): -5.3; for `CC1(COc2ccc3c(c2)ncn3-c2ccc3cccc(N4CCC(N)CC4)c3n2)COC1` [Crenolanib] (top concentration 10000 nM): -3.92; for `O=C(Nc1cc(Oc2cc(F)c(NC(=O)C3(C(=O)Nc4ccc(F)cc4)CC3)cc2F)ccn1)C1CC1` [Altiratinib] (top concentration 10000 nM): 2.84.
On to `O=C(Nc1ccncc1)C(=O)c1cn(Cc2ccc(Cl)cc2)c2ccccc12` [Indibulin] (top concentration 10000 nM), for which the “selective drug sensitivity score” value amounted to 17.

The values are drawn from the supplement of paper PMC8967900.
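Also: ALL cell lines in 384-well plates, five doses spanning 10,000-fold, each plate scaled between vehicle and 100 µmol/L benzalkonium chloride controls, sDSS an adapted area-under-curve metric.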
